We go through 2 compounds from patent US20180010188A1, “METHOD FOR DETECTING NONSENSE-MEDIATED RNA DECAY” (The Regents of the University of California, priority 2016, published 2018).

Some results are limits rather than exact numbers.

For experiment [1], the system named is NMD and non-NMD isoforms of Srsf11, Ptbp2, Tra2b, Hnrnpl and Psd-95 (cellular NMD activity). Description: RT-qPCR of endogenous NMD and non-NMD isoforms to monitor cellular NMD activity. The class given is cell-based, mouse. The text has this:
In our method, we measure the individual abundance of NMD-sensitive isoforms and that of their non-NMD counterparts via quantitative real-time PCR (qPCR). The NMD isoforms are first examined for differential expression between a treatment and a control condition. An increase in a NMD isoform may be due to NMD inhibition, transcriptional activation or a change in alternative splicing favoring the NMD isoform. These three scenarios can be distinguished by examining the expression of the non-NMD counterparts. Genuine NMD regulation, transcriptional activation and alternative splicing regulation would lead to no change, upregulation and down-regulation of the NMD-insensitive isoforms, respectively (FIG. 6A).
One technical difficulty of our method is designing RT-qPCR primers specific to the cassette exon-skipping isoform, whose entire sequence is contained in the inclusion isoform. To specifically detect an inclusion isoform, we designed a primer entirely annealing to the cassette exon (exon B in FIG. 1A). For the exclusion isoform, junction primers annealing to the exon-skipping junction appear to be the only choices. This can be either a reverse primer (FIG. 1A) with its 5′ portion matching the downstream constitutive exon (exon C) and its 3′ portion matching the upstream constitutive exon (exon A) or a forward primer (not shown) with its 5′ and 3′ portions matching the upstream and downstream exons, respectively. The challenge is herein illustrated with reverse primers but also applies to forward primers. Many exon-skipping junction primers are able to amplify the inclusion isoforms (FIGS. 7A-D). The longer the 3′ portion of the junction primer annealing to the upstream constitutive exon, the easier the primer amplifies the inclusion transcripts (FIG. 7B). Some exon-skipping junction primers with 3′ portions as short as six nucleotides, as we've observed, can still anneal to and detect the inclusion isoform at 55-60° C., albeit at a lower efficiency than its detection of the exclusion isoform. On the other hand, a longer 5′ portion and a shorter 3′ portion increase the possibility of the primer annealing to the exon B-exon C junction because of the sequence similarity around 5′ splice sites (FIGS. 7C-D). We therefore had to identify NMD-associated cassette exons containing a 3′ end unlike that of its upstream exon. We then screened multiple exon-skipping junction primers for one that amplified only the exclusion isoform and not the inclusion isoform. All primer pairs were tested and confirmed for their specificity, RT-qPCR efficiency and linear dynamic ranges (FIG. 10). Finally, two stably expressed housekeeping genes, Gapdh and Sdha, were used as internal controls for normalization by geometric averaging (Vandesompele et al., 2002. Genome Biol 3: RESEARCH0034).
Because our method can be used on its own can to infer NMD regulation with a low false positive rate, one of its applications is unbiased screening for changes in cellular NMD activity. We screened a small panel of widely used pharmacological inhibitors for their effects on NMD. The expression of both the NMD and non-NMD isoforms of Ptbp2, Srsf11, Tra2b, Hnrnpl and Psd-95 were simultaneously measured before and after drug treatment. When the levels of all of the NMD isoforms were altered by a chemical in the same direction, the expression of the NMD and non-NMD isoforms under the treatment and control conditions was then subjected to ANOVA analysis to determine differential regulation of the two isoforms. We were interested in drugs that affected the NMD isoforms across the board and more strongly than the non-NMD counterparts. With this criterion, we identified thapsigargin as having potent activity in blocking cellular NMD.
Neuro-2a (N2a) cells were maintained in N2a complete media consisting of L-glutamine-free Dulbecco's modified Eagle's medium (DMEM), 10% FBS and 1× GlutaMAX at 37° C. […]

In a further experiment the test system is core NMD factors. Put plainly: Expression of core NMD factors after thapsigargin. The class given is cell-based, mouse. As to conditions: 5 hours after thapsigargin treatment (data not shown). From the text:
Thapsigargin is a non-competitive inhibitor of the sarco/endoplasmic reticulum Ca^2+ ATPase (SERCA) (Wictome et al., 1992. Biochem J 283 (Pt 2): 525-529; Lytton et al., 1991. J Biol Chem 266: 17067-17071). Thapsigargin treatment increases intracellular Ca^2+ concentration, which stimulates various Ca^2+ dependent signaling pathways. In fact, Nickless et al. recently reported that intracellular calcium inhibited NMD after administration of thapsigargin (Nickless et al. 2014. Nat Med 20: 961-966). Thapsigargin also induces ER stress. […] The diverging mechanisms reported by these studies were both based on the traditional NMD reporter approach and gene-centric validation. We therefore investigated which of the proposed mechanisms our independent method would support.

[2] abbreviates: N2a cells, 5 hours post-treatment.

Turning to `Cn1cc(-c2ccc3c(c2)CCN3C(=O)Cc2cccc(C(F)(F)F)c2)c2c(N)ncnc21` [GSK2606414], the “concentration sufficient to revert the effect of thapsigargin on the NMD isoforms” value in experiment [1] (N2a cells, thapsigargin plus GSK2606414, Psd-95, Ptbp2, Tra2b) is at least 0.1 µM. The “upregulation of the NMD isoforms in thapsigargin-treated cells” value in experiment [1] (dose-dependent, 1 hour preincubation) is reported as “effectively reversed”. Besides, the “NMD activity in DMSO-treated cells” value in experiment [1] (without thapsigargin) was “did not affect”.
In the case of `C/C=C(/C)C(=O)O[C@H]1C(C)=C2[C@H]([C@@H]1OC(=O)CCCCCCC)[C@@](C)(OC(C)=O)C[C@H](OC(=O)CCC)[C@@]1(O)[C@H]2OC(=O)[C@@]1(C)O` [thapsigargin], the “expression of core NMD factors” value with core NMD factors was “no changes in their expression”. For the same compound, in experiment [1] (0.01 μM, 5 hours), the “NMD repression at 0.01 μM” value is given as “little NMD repression”. Moreover, the “isoform upregulation relative to maximal upregulation” value in experiment [1] (0.02 μM) is reported as “about 20%”. Moreover, in experiment [1] (0.2 μM thapsigargin, N2a cells), the “earliest time of increase of NMD isoform transcripts” value stood at 1 h. For the same compound, in experiment [1] (0.2 μM, at 5 hours), the “increase of non-NMD isoforms of Ptbp2 and Psd-95” value is given as “around 1.8 fold”; the “non-NMD isoform levels of Srsf11, Tra2b and Hnrnpl” value is recorded as “barely changed”. Further, the “fraction of full NMD inhibition detectable” value in experiment [1] (1 hour post-treatment, full inhibition at 5 hours) is recorded as 20-30%. For the same compound, the “concentration at which repressive effect on NMD started to plateau” value in experiment [1] (N2a cells) was at least 0.2 µM. For the same compound, in experiment [1] (setting [2]), the “concentration at which Xbp1s splicing and NMD repression plateaued” value is given as at least 0.1; the “lowest concentration at which NMD inhibition was observed” value came to 0.02 µM; the “lowest concentration inhibiting NMD” value was 20 nM. Moreover, in experiment [1] (above 0.2 μM (data not shown)), the “NMD inhibition at concentrations above 0.2 μM” value is given as “did not further increase NMD inhibition”. The “NMD isoforms in siPerk-pretreated cells” value in experiment [1] (thapsigargin after 48 hours siPerk) is reported as “none of the NMD isoforms were stimulated”.
